Assay results as given in patent US20230286983A1 (4E Therapeutics, Inc., priority 2020, published 2023).
Several values for one entry are separate records, joined by “and”; a condition that tells them apart may be missing. Identical values can stand only once. Like-named read-outs stand apart in the source and are kept apart here.

What was measured:
[1] = test system: eIF4E phosphorylation at Serine 209 in the human osteosarcoma (U2OS) cell line; assay: eIF4E phosphorylation in U2OS cells (fluorescent plate reader); format: cell-based; conditions: Homo sapiens, U2OS; eIF4E phosphorylation at Serine 209, 2 hours exposure
Procedure: The ability of MNK inhibitors described herein to inhibit eIF4E phosphorylation at Serine 209 in the human osteosarcoma (U2OS) cell line was tested by exposing the cells to compound for 2 hours and then measuring eIF4E phosphorylation with a phosphorylation-specific antibody in a fluorescent plate reader.

[2] = target: T1, protein kinase G 2 (PKG2) (Homo sapiens, UniProt Q13237); assay: Off-target kinase screen PKG2; format: biochemical; conditions: 1 μM test compound
T1 sequence (Q13237 1-762): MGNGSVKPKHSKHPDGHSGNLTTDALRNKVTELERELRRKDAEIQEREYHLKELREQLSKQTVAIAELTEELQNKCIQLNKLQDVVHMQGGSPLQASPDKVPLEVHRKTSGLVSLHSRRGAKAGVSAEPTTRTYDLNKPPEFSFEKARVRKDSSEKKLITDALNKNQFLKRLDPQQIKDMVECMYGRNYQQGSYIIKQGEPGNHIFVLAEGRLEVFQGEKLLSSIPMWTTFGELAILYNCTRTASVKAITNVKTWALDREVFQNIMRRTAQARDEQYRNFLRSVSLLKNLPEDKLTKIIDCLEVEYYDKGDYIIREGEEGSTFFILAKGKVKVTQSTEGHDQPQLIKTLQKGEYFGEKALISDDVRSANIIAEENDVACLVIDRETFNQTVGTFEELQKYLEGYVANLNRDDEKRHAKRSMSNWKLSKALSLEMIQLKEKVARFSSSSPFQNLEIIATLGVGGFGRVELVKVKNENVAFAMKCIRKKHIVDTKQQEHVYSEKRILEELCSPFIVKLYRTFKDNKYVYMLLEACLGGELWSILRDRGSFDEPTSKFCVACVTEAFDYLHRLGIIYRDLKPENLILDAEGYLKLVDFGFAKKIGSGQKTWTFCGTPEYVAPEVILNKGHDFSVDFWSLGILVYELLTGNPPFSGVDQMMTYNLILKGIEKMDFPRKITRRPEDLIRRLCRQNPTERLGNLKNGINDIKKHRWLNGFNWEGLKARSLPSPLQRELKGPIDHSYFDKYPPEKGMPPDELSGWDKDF
Source text: These kinases were chosen because they are the only known off-target hit kinases for eFT508. These assays were done using recombinant human kinases (CLK4, DRAK1 and PKG2) in a substrate phosphorylation assay. % activity remaining after MNK inhibitor treatment is indicated in Table 12.

[3] = Brain vs plasma concentration, 4ET-03-009 at 10 mg/kg; format: in vivo, mice; conditions: 10 mg/kg oral, 2 hours after dosing; for concentration at 2 hours: oral, 10 mg/kg
Procedure: In separate mice administered the same therapy, brain tissue was harvested 2 hours after dosing and brain concentration of the MNK inhibitor was measured by homogenizing brain tissue followed by LC-MS/MS analysis. Plasma concentration was measured as described above.

[4] = Pharmacokinetic study, 4ET-03-009 at 20 mg/kg oral; format: in vivo, CD-1 male mice; conditions: for AUCinf/D / Cmax/D: dose normalized; for concentration at 0.083 hours / concentration at 0.25 hours / concentration at 0.5 hours / concentration at 1 hours / concentration at 2 hours / concentration at 4 hours / concentration at 6 hours / concentration at 8 hours / concentration at 24 hours: oral
Procedure: Compound 4ET-03-009 was dissolved in a 10% dimethylacetamide (DMA)/3000 polyethylene glycol (PEG) 300/400% propylene glycol (PG)/200% water solvent. […] Plasma was collected at indicated timepoints and plasma concentration of compound 4ET-03-009 was measured using liquid chromatography-mass spectrometry/mass spectrometry (LC-MS/MS). Results are presented in FIG. 1 and Tables 3, 4, and 5.
Compound 4ET-03-009 was dissolved in a 10% dimethylacetamide (DMA)/30% polyethylene glycol (PEG) 300/40% propylene glycol (PG)/20% water solvent. Dosing and assay were performed as described in Biological Example 2. Results are presented in FIG. 3 and Tables 7, 8, and 9, below.

[5] = male, CD-1, mouse, plasma, po, 20 mg/kg, Mean (n = 3)
[6] = male, CD-1, mouse, plasma, po, 20 mg/kg, individual animals

SMILES: Cc1cc(Nc2cc(NC(=O)C3CC3)ncn2)c(=O)n2c1C(=O)NC21CCOCC1 [Compound 4ET-03-009, N-(6-((8-Methyl-1,5-dioxo-1,2′,3′,5,5′,6′-hexahydro-2H-spiro[imidazo[1,5-a]pyridine-3,4′-pyran]-6-yl)amino)pyrimidin-4-yl)cyclopropanecarboxamide]
- IC50 [1]: 1.7 nM
- remaining activity at 1 µM [2]: 99%
- brain entry [3]: enters the brain very poorly
- Tissue Homogenate Conc. n = 3 ([3]; Brain, individual): 5.5 ng/mL and 7.28 ng/mL
- Plasma Conc. n = 3 ([3]; Plasma, individual): 292 ng/mL and 337 ng/mL
- concentration at 2 hours ([3]; CD-1, mouse, brain homogenate, Brain, individual, read-out: Tissue Homogenate Conc. n = 3): 7.67 ng/mL
- concentration at 2 hours ([3]; CD-1, mouse, brain homogenate, Brain, read-out: Tissue Homogenate Conc. Mean): 6.82 ng/mL
- concentration at 2 hours ([3]; CD-1, mouse, brain, Brain, read-out: Mean Tissue): 27.3 ng/g
- Kp at 2 hours ([3]; CD-1, mouse, brain/plasma, Brain, read-out: Mean Tissue/Plasma Conc. Ratio): 0.083
- concentration at 2 hours ([3]; CD-1, mouse, plasma, Plasma, individual, read-out: Plasma Conc. n = 3): 357 ng/mL
- concentration at 2 hours ([3]; CD-1, mouse, plasma, Plasma, read-out: Plasma Conc. Mean): 329 ng/mL
- abnormal clinical symptoms during the study [4]: No abnormal clinical symptoms were observed
- Plasma Conc. (per mouse n = 3) ([4]; 0.083 hours): 384 ng/mL and 304 ng/mL
- Plasma Conc. (per mouse n = 3) ([4]; 0.25 hours): 529 ng/mL and 396 ng/mL
- Plasma Conc. (per mouse n = 3) ([4]; 0.5 hours): 607 ng/mL and 497 ng/mL
- Plasma Conc. (per mouse n = 3) ([4]; 1 hours): 561 ng/mL and 448 ng/mL
- Plasma Conc. (per mouse n = 3) ([4]; 2 hours): 372 ng/mL and 286 ng/mL
- Plasma Conc. (per mouse n = 3) ([4]; 4 hours): 144 ng/mL and 135 ng/mL
- Plasma Conc. (per mouse n = 3) ([4]; 6 hours): 71.3 ng/mL and 58.7 ng/mL
- Plasma Conc. (per mouse n = 3) ([4]; 8 hours): 51.4 ng/mL and 41.5 ng/mL
- Plasma Conc. (per mouse n = 3) ([4]; 24 hours): 2.01 ng/mL and 1.89 ng/mL
- Tlast ([4]; Mean (n = 3)): 24.0 h
- t1/2 ([4]; Mean (n = 3)): 3.55 h
- AUCinf/D ([4]; Mean (n = 3)): 113 kg·h/kL
- Cmax/D ([4]; Mean (n = 3)): 29.5 kg/kL
- AUC0-8 hours ([4]; individual animals): 1847 ng·h/mL and 1501 ng·h/mL
- AUCinf ([4]; individual animals): 2284 ng·h/mL and 1858 ng·h/mL
- AUClast ([4]; individual animals): 2274 ng·h/mL and 1848 ng·h/mL
- Clast ([4]; individual animals): 2.01 ng/mL and 1.89 ng/mL
- Cmax ([4]; individual animals): 607 ng/mL and 497 ng/mL
- MRTinf ([4]; individual animals): 3.53 h
- Tlast ([4]; individual animals): 24.0 h
- t1/2 ([4]; individual animals): 3.47 h and 3.61 h
- AUCinf/D ([4]; individual animals): 131 kg·h/kL and 114 kg·h/kL and 92.9 kg·h/kL
- Cmax/D ([4]; individual animals): 33.3 kg/kL and 30.4 kg/kL and 24.9 kg/kL
- Tmax ([4]; male, CD-1, mouse, plasma, individual animals): 0.5 h
- concentration at 0.083 hours ([4]; male, CD-1, mouse, plasma, 20 mg/kg, 0.083 hours, mean n = 3, read-out: Plasma Conc. Mean): 331 ng/mL
- concentration at 0.083 hours ([4]; male, CD-1, mouse, plasma, 20 mg/kg, 0.083 hours, read-out: Plasma Conc. (per mouse n = 3)): 304 ng/mL
- concentration at 0.25 hours ([4]; male, CD-1, mouse, plasma, 20 mg/kg, 0.25 hours, mean n = 3, read-out: Plasma Conc. Mean): 530 ng/mL
- concentration at 0.25 hours ([4]; male, CD-1, mouse, plasma, 20 mg/kg, 0.25 hours, read-out: Plasma Conc. (per mouse n = 3)): 665 ng/mL
- concentration at 0.5 hours ([4]; male, CD-1, mouse, plasma, 20 mg/kg, 0.5 hours, mean n = 3, read-out: Plasma Conc. Mean): 590 ng/mL
- concentration at 0.5 hours ([4]; male, CD-1, mouse, plasma, 20 mg/kg, 0.5 hours, read-out: Plasma Conc. (per mouse n = 3)): 666 ng/mL
- concentration at 1 hours ([4]; male, CD-1, mouse, plasma, 20 mg/kg, 1 hours, mean n = 3, read-out: Plasma Conc. Mean): 553 ng/mL
- concentration at 1 hours ([4]; male, CD-1, mouse, plasma, 20 mg/kg, 1 hours, read-out: Plasma Conc. (per mouse n = 3)): 649 ng/mL
- concentration at 2 hours ([4]; male, CD-1, mouse, plasma, 20 mg/kg, 2 hours, mean n = 3, read-out: Plasma Conc. Mean): 355 ng/mL
- concentration at 2 hours ([4]; male, CD-1, mouse, plasma, 20 mg/kg, 2 hours, read-out: Plasma Conc. (per mouse n = 3)): 408 ng/mL
- concentration at 4 hours ([4]; male, CD-1, mouse, plasma, 20 mg/kg, 4 hours, mean n = 3, read-out: Plasma Conc. Mean): 153 ng/mL
- concentration at 4 hours ([4]; male, CD-1, mouse, plasma, 20 mg/kg, 4 hours, read-out: Plasma Conc. (per mouse n = 3)): 180 ng/mL
- concentration at 6 hours ([4]; male, CD-1, mouse, plasma, 20 mg/kg, 6 hours, mean n = 3, read-out: Plasma Conc. Mean): 74.5 ng/mL
- concentration at 6 hours ([4]; male, CD-1, mouse, plasma, 20 mg/kg, 6 hours, read-out: Plasma Conc. (per mouse n = 3)): 93.6 ng/mL
- concentration at 8 hours ([4]; male, CD-1, mouse, plasma, 20 mg/kg, 8 hours, mean n = 3, read-out: Plasma Conc. Mean): 50.2 ng/mL
- concentration at 8 hours ([4]; male, CD-1, mouse, plasma, 20 mg/kg, 8 hours, read-out: Plasma Conc. (per mouse n = 3)): 57.6 ng/mL
- concentration at 24 hours ([4]; male, CD-1, mouse, plasma, 20 mg/kg, 24 hours, mean n = 3, read-out: Plasma Conc. Mean): 2.22 ng/mL
- concentration at 24 hours ([4]; male, CD-1, mouse, plasma, 20 mg/kg, 24 hours, read-out: Plasma Conc. (per mouse n = 3)): 2.75 ng/mL
- concentration at 24 hours ([4]; male, CD-1, mouse, plasma, 20 mg/kg, Mean (n = 3), read-out: Clast): 2.22 ng/mL
- concentration at 24 hours ([4]; male, CD-1, mouse, plasma, 20 mg/kg, individual animals, read-out: Clast): 2.75 ng/mL
- AUC(0-inf) [4, 5]: 2260 ng·h/mL
- MRT inf [4, 5]: 3.59 h
- half-life [4, 5]: 3.6 h
- AUC(0-t) ([4]; male, CD-1, mouse, plasma, po, 20 mg/kg, Mean (n = 3), read-out: AUC0-8 hours): 1830 ng·h/mL
- AUC(0-t) ([4]; male, CD-1, mouse, plasma, po, 20 mg/kg, Mean (n = 3), read-out: AUClast): 2240 ng·h/mL
- Cmax ([4]; male, CD-1, mouse, plasma, po, 20 mg/kg, Mean (n = 3), read-out: Cmax): 590 ng/mL
- AUC(0-inf) ([4]; male, CD-1, mouse, plasma, po, 20 mg/kg, for the study): 2260 ng·h/mL
- Cmax ([4]; male, CD-1, mouse, plasma, po, 20 mg/kg, for the study, read-out: Cmax): 1400 nM
- AUC(0-inf) [4, 6]: 2630 ng·h/mL
- MRT inf [4, 6]: 3.63 h
- half-life [4, 6]: 3.58 h
- AUC(0-t) ([4]; male, CD-1, mouse, plasma, po, 20 mg/kg, individual animals, read-out: AUC0-8 hours): 2130 ng·h/mL
- AUC(0-t) ([4]; male, CD-1, mouse, plasma, po, 20 mg/kg, individual animals, read-out: AUClast): 2610 ng·h/mL
- Cmax ([4]; male, CD-1, mouse, plasma, po, 20 mg/kg, individual animals, read-out: Cmax): 666 ng/mL
